Assay results published in patent US20140186872A1, “BISACODYL AND ITS ANALOGUES AS DRUGS FOR USE IN THE TREATMENT OF CANCER” (CENTRE NATIONAL DE LA RECHERCHE SCIENTIFIQUE- CNRS, priority 2011, published 2014).
Read-outs that look alike come from different tables or passages of the source.

Legend:
[1] = system: quiescent TG1 glioblastoma stem cells; assay: ATP-Glo (Cell Titer Glo) cell viability, dose/response, quiescent TG1 cells; assay type: cell-based, human; conditions: for EC50: Homo sapiens, quiescent TG1 cells, ATP-Glo, read-out: concentration leading to 50% of effect (EC50); for EC50 / effect on survival of quiescent TG1 cells (words) / cytotoxicity to quiescent TG1 cells: 24 h; for effect on survival of quiescent TG1 cells (words): own conditioned medium; for cytotoxicity to quiescent TG1 cells: 10 μM
Method: The TG1 cells were put into quiescence by keeping the cells in culture without changing the medium from 9 to 16 days. The state of quiescence was verified by non-incorporation of nucleotides into the DNA of the cells (see example 9).
The quiescent cells were put back in 1 mL of conditioned medium, dissociated mechanically by pipetting up and down 100 times with a P1000 micropipette preset to 400 μl and counted with Trypan Blue, after dilution in conditioned medium, to obtain a final suspension of 8.10^5 cells/mL.
(§1) 50 μl of solution containing cells was deposited per well in a 96-well plate (Greiner #655090).
(§2) The test compounds, in solution of 100% of DMSO were diluted in culture medium: in the absence of DMSO (medium 0% DMSO) or in the presence of 2% of DMSO (medium 2% DMSO) at concentrations of 200 μM, 100 μM, 80 μM, 60 μM, 40 μM, 20 μM, 10 μM and 2 μM. For all these dilutions the final concentration in DMSO was 2% (see Table 1 below; volumes shown make it possible to construct dose/response curves, in triplicate, for 1 compound on a 96-well plate—FIG. 1)
50 μL of solution of compound was added at the concentrations specified above to 50 μL of cells in the plate (FIG. 1) (Final concentration of compounds in contact with the cells: 100 μM, 50 μM, 40 μM, 30 μM, 20 μM, 10 μM, 5 μM, 1 μM (in 1% of final DMSO). Final concentration of positive control: 50 μM in 1% of final DMSO. Final concentration of negative control: 1% final DMSO).
The cells were incubated for 23 to 24 hours at 37° C. in an incubator in the presence of 5% CO2 (under humid atmosphere at 95% provided by a reservoir filled with distilled water).
(§3) The test of cell viability was carried out using the Cell Titer Glo kit (Promega #G7571). After thawing of the Cell Titer Glo reagent (1 Buffer vial+1 Substrate vial per plate) protected from the light, the contents of the Buffer vial were transferred to the Substrate vial. 100 μl of Cell Titer Glo reagent was deposited on the cells treated with the compounds.
(§4) The results, which were given for each well in strokes per second (sps), were converted to percentage cell survival relative to the control 1% of DMSO, which was fixed at 100%.
(§5) The EC50 was determined as the concentration that gives 50% of the response.
(§6) Glioblastoma (WHO grade IV glioma) stem cells (TG1, TG16 and OB1) were derived from tumor samples of 3 patients at Sainte Anne Hospital (Paris, France), as previously described (48) and expanded as neurosphere cultures. In continuously proliferating cultures, neurospheres were mechanically dissociated into a single-cell suspension twice a week with 90% renewal of their culture medium. Quiescent glioblastoma stem cells were obtained by non-renewal of the culture medium for 9-16 days following cell seeding. The non-proliferating state was assessed by decreased ability of the cells to incorporate EdU (5-ethynyl-2′-deoxyuridine) using the Click-iT™ EdU Flow Cytometry Assay Kit (Invitrogen, France) according to the manufacturer's instructions. […]
(§7) Confirmed hit compounds from the primary and secondary screens were purchased from Prestwick Chemical and dissolved in DMSO to obtain 10 mM concentrated stock solutions. Hit compound validation was obtained through dose-response curves on the viability of TG1 glioblastoma stem cells under the same experimental conditions (cell density, treatment duration) as described for the primary and secondary screens. Each compound was tested in triplicate in at least three independent experiments on proliferating and quiescent glioblastoma stem TG1 cells.
(§8) The EC50 value was determined for each compound by fitting the data points according to the following equation: […]
(§9) where y represents the expected response (expressed as a percentage of cell viability), x is the chemical compound concentration, Smax and Smin are the maximum and minimum viability responses recorded, respectively, and n is the Hill coefficient. Curve fitting was performed using the Microsoft Excel Solver component.

[2] = Stability of the test compounds in the culture medium (HPLC); assay type: physicochemical; conditions: for half-life at 10 μM: 1% DMSO, 37° C., HPLC
Method: A mass m was weighed with an analytical balance and a volume V of DMSO was added.
The solution of the compound at 10 mM was diluted to 1/10, still in DMSO.
The latter solution was diluted to 1/100 in medium in order to obtain a final concentration of 10 μM and 1% of DMSO.
After homogenizing (2 min), 150 μl was taken and was mixed with 150 μl of acetonitrile to precipitate the proteins present in the medium, which corresponds to a dilution to ½.
The mixture was vortexed for 1 min and then centrifuged for 10 min at 15000 g.
The supernatant was again diluted to ½ with 1 volume of milliQ water and then injected in HPLC.
The same treatment was carried out at times 2 h, 4 h, 6 h and 24 h.
The solutions were analysed in HPLC using a Gilson chain equipped with a diode array detector and of an automatic injector with an injection loop of 20 μl.
10 μM solutions of Bisacodyl and DDPM were prepared in proliferating or quiescent glioblastoma stem cell culture medium in the presence of 1% DMSO. Following protein precipitation (with acetonitrile), samples were analyzed by HPLC after 0, 2, 4, 6 and 24 h of incubation at 37° C.

[3] = system: human primary astrocytes (HA cells); assay: ATP-Glo cell viability on human astrocytes; assay type: cell-based
Excerpt: Primary human astrocytes (HA cells) were expanded in AM Medium (both from ScienCell Research Laboratories, Carlsbad Calif.) according to the manufacturer's instructions.

HEK293 cells = assay: ATP-Glo cell viability on HEK 293 cells
Method: (§10) The cells were passed 2 or 3 days before the experiment. On that very day, the cells are detached with trypsin according to the above protocol, then centrifuged for 10 minutes at 800 rpm.
(§11) The supernatant was removed and the cells were resuspended in culture medium, then counted and finally diluted to give a final suspension of 10^6 cells/mL.
(§12) 7 mL of cellular suspension at 10^6 cells/mL was prepared for each test compound.
Human Embryonic Kidney 293 cells (HEK 293 cells) were expanded in Minimum Essential Medium (MEM) with 2 mM L-Glutamine, 100 UI/ml-100 μg/ml Penicillin/Streptomycin and 10% FBS.

[4] = system: proliferating TG1 glioblastoma stem cells; assay: ATP-Glo (Cell Titer Glo) cell viability, dose/response, proliferating TG1 cells; assay type: cell-based, human; conditions: for effect on survival of proliferating TG1 cells: own culture medium
Method: The TG1 proliferating cells correspond to cells for which medium is renewed regularly, twice weekly.
The proliferating cells were put back in 1 mL of fresh NS34 medium, dissociated mechanically by pipetting up and down 100 times with a P1000 micropipette preset to 400 μl and counted with Trypan Blue, after dilution in fresh NS34 medium, to obtain a final suspension of 6×10^5 cells/mL.
as §1, §2
50 μL of solution of compound was added at the concentrations specified above to 50 μL of cells in the plate (FIG. 1) (Final concentration of compounds in contact with the cells: 100 μM, 50 μM, 40 μM, 30 μM, 20 μM, 10 μM, 5 μM, 1 μM (in 1% of final DMSO). Final concentration of positive control: 50 μM in 1% of final DMSO. Final concentration of negative control: 1% final DMSO). […]
as §3, §4, §5, §6, §7, §8, §9

[5] = system: U-87 MG glioblastoma cell line; assay: ATP-Glo cell viability on U-87 MG cells; conditions: for cytotoxic effect on U-87 MG cells: 24 h
Method: as §10, §11, §12
The glioblastoma U-87 MG cell line was purchased from ATCC and expanded in Eagle's Minimum Essential Medium (EMEM) (ATCC) supplemented with 10% fetal bovine serum (FBS) (Invitrogen, France) and 1% penicillin/streptomycin (Invitrogen, France).
The pH of the medium solution was then adjusted to values varying between 7.4 and 6.0 with 1M HCl or a sodium acetate buffer (0.1 M pH=4). The culture media were placed in a CO2 cell culture incubator settled to 5% CO2 and 37° C. for 1 hour. The pH was measured again and re-adjusted to the expected values if necessary and culture media were filter-sterilized (0.22 μm filter) prior to their use. The toxicity of DDPM (10 or 100 μM) on proliferating and quiescent TG1 cells was then assessed under the same conditions as those described in the previous section. pH dependency of lead compounds was also assessed for the glioblastoma U-87 MG cell line and on normal fetal neural stem cells and primary human astrocytes in their respective culture media (adjusted to pH 7.4 or 6.2) with HCl (1M) or a sodium acetate buffer (0.1 M pH=4).

[6] = system: human fetal neural stem cells (f-NSC cells); assay: ATP-Glo cell viability on fetal neural stem cells; assay type: cell-based
[7] = system: caspase 3/7 activity in proliferating and quiescent TG1 cells; assay: Apo-ONE Homogeneous Caspase-3/7 Assay in TG1 cells; assay type: cell-based, human
Method: Proliferating (30 000 cells/well) and quiescent (40 000 cells/well) TG1 cells were suspended in freshly prepared culture medium (pH=7.3) or acidified freshly prepared culture medium (pH=6.4) and treated with increasing concentrations of the lead compounds for 24 hours. Following treatment, apoptosis was measured with the Apo-ONE Homogeneous Caspase-3/7 Assay from Promega according to the manufacturer's instructions. Staurosporine (Sigma, Aldrich) and culture medium were used as positive and negative controls, respectively.

[8] = system: quiescent TG1 glioblastoma stem cells; assay: ATP-Glo (Cell Titer Glo) cell viability, dose/response, quiescent TG1 cells; assay type: cell-based, human; conditions: treated 24 h in freshly prepared non-conditioned medium, versus own medium
[9] = 100 μM, acidification with sodium acetate buffer, versus HCl

With CC(=O)Oc1ccc(C(c2ccc(OC(C)=O)cc2)c2ccccn2)cc1 [Compound 1, Bisacodyl] the EC50 [1] was 1 µM, the “effect on survival of quiescent TG1 cells (words)” value (“effect on survival … (words)” below) ([1]; listed as Bisacodyl) was “only active on TG1 cells in quiescence” and the “effect on survival … (words)” value ([1]; listed as bisacodyl) was “more selective effects”. The half-life at 10 μM ([2]; read-out: half-life in the medium of the proliferating cells (converted)) was 2 h, the half-life at 10 μM ([2]; quiescent glioblastoma stem cell culture medium (no cells), read-out: half-life in the medium of the quiescent cells (converted)) was 4 h and the “toxicity for HA cells” value [3] was “does not display any toxicity”. For the same compound, the Emax ([3]; Homo sapiens, Astrocyte, not due to cell death, read-out: maximum effect on HA cells: reduction of ATP levels) was 30%, the “survival of human astrocytes (HA)” value ([3]; concentrations above 10 μM) was 60% and the “toxicity for HEK293 cells” value (HEK293 cells) was “does not display any toxicity”. The “survival of HEK293 cells” value (HEK293 cells; 10 μM) was 100%, the “survival of HEK293 cells” value (HEK293 cells; 100 μM) was 80% and the “effect on survival of proliferating TG1 cells” value ([4]; 24 h) was “not on TG1 cells proliferating continuously”. For the same compound, the “survival of U-87 MG cells” value ([5]; concentrations between 10 and 100 μM) was 90%, the “effect on survival / toxicity, f-NSC cells” value [6] was “does not display any toxicity” and the “cell survival of f-NSC cells” value ([6]; concentrations of compound up to 100 μM) was “over 90%”.

For Oc1ccc(C(c2ccc(O)cc2)c2ccccn2)cc1 [Compound 2, 4,4′-(Pyridin-2-ylmethylene)diphenol], the “cytotoxicity to quiescent TG1 cells” value ([1]; pH values above 7) was “little or no effect”, the “cytotoxicity to quiescent TG1 cells” value ([1]; slightly acidic conditions (HCl)) was “cytotoxic” and the “effect on quiescent TG1 cells” value [1, 9] was “more pronounced”. For the same compound, the EC50 [1] was roughly 1 µM, the “effect on survival … (words)” value [1] was “effect comparable to bisacodyl” and the “effect on survival … (words)” value ([1]; listed as DDPM) was “high cytotoxicity”. The “caspase 3/7 activity” value ([7]; pH 6.4, 24 h, proliferating and quiescent TG1 cells) was “stimulates caspase 3/7 activity in a dose-dependent manner”, the “pro-apoptotic effect (caspase 3/7 activity)” value ([7]; physiological pH (pH 7.3), 24 h) was “not observed” and the “change in concentration in the culture media (stability)” value ([2]; proliferating and quiescent culture medium, up to 24 h) was “No change”. The “effect on ATP levels of human astrocytes” value ([3]; pH 7.4 versus 6.2, related to cell death) was “pH dependent reduction of ATP levels”, the “effect on quiescent TG1 cells after media exchange” value [8] was “significantly reduced” and the “survival of proliferating TG1 cells” value ([4]; 10 μM, 24 h, acidic medium (HCl)) was “also decreased”. For the same compound, the “effect on proliferating TG1 cells” value [4, 9] was “more pronounced”, the “survival of TG1 glioblastoma cancer stem cells (ATP level)” value ([4]; NS34 medium pH 7.35 or 6.2, 24 or 72 h, Example 13) was “decreases the survival” and the “effect on survival of proliferating TG1 cells” value ([4]; 24 h) was “a little more marked”. The “effect on survival of proliferating TG1 cells” value ([4]; 24 h, listed as DDPM) was “minor effect”, the “cytotoxic activity on proliferating TG1 cells after media exchange” value ([4]; treated 24 h in conditioned quiescent cell medium, versus own medium) was “more pronounced cytotoxic activity” and the “percentage of U-87 cell death” value ([5]; acidic pH adjusted with sodium acetate buffer, versus HCl) was “even higher”. The “cytotoxic effect on U-87 MG cells” value ([5]; pH 6.2 set with 1M HCl, versus physiological pH) was “significantly higher” and the “cytotoxic effect on U-87 MG cells” value ([5]; physiological pH) was “no cytotoxic effect”.
